Data set [1] concerns A549 cells (KRAS mutant). The data set is described as follows: CellTiter-Glo viability assay, A549. As to conditions: Homo sapiens, A549, 96 h, read-out: KRAS CTG EC50 A549.
Method: (§7) A431, HCC827, H1975, A549 and H358 cells were obtained from the American Type Culture Collection (ATCC). A431 cells were cultured in DMEM high glucose media (Life Technologies, Germany), and HCC827, H1975, A549 as well as H358 cells were cultured in RPMI media (Life Technologies, Germany), both containing L-Glutamine and were supplemented with 10% FBS (GE Healthcare, Austria) and 1% PenStrep (Life Technologies, Germany) in a humidified incubator at 37 °C and 5% CO2.
(§8) Cells were seeded at cell numbers that assure linearity and optimal signal intensity (150-300 cells/well, 25 µL) and cultured for 24 hours in serum- and antibiotics-containing media in humidified chambers at 37 °C / 5% CO2. The cells were then treated with EGFR inhibitors in serial
(§9) Afterwards viability studies were carried out using CellTiter-Glo Assay (Promega, USA) that is a homogeneous method of determining the number of viable cells in culture. It is based on quantification of ATP, indicating the presence of metabolically active cells. For these studies, CellTiter-Glo reagent was prepared according to the instructions of the kit and diluted 1:1 with the complete growth medium suitable for the corresponding cell line. Thereon, reagent and assay plates were equilibrated at room temperature for 20 min. Equal volumes of the reagent were added to the volume of culture medium present in each well (25 µL). The plates were mixed for 2 minutes on an orbital shaker to induce cell lysis. The microplates were then incubated at room temperature for 20 minutes for stabilization of the luminescent signal. Following incubation the luminescence was recorded on an EnVision microplate reader (Perkin Elmer) using 500 ms integration time. The data was then analyzed using the Quattro Research Software Suite for EC50-determination. As quality control the Z’-factor was calculated from 16 positive and negative control values. Only assay results showing a Z’-factor ≥0.5 were used for further analysis. All data points were measured in duplicates for each plate and were replicated in at least two plates.
In data set [2] the target is T1, EGFR-wt (Homo sapiens, UniProt P00533). The data set is described as follows: HTRF KinEASE-TK activity-based assay, EGFR-wt. As to conditions: EGFR HTRF IC50 wt, ATP at Km (9.5 µM), 30 min preincubation; mean ± SD of three independent measurements in duplicates. (In general: In TR-FRET formats the signal depends on donor and acceptor labels being close together.)
T1 sequence (P00533 25-1210): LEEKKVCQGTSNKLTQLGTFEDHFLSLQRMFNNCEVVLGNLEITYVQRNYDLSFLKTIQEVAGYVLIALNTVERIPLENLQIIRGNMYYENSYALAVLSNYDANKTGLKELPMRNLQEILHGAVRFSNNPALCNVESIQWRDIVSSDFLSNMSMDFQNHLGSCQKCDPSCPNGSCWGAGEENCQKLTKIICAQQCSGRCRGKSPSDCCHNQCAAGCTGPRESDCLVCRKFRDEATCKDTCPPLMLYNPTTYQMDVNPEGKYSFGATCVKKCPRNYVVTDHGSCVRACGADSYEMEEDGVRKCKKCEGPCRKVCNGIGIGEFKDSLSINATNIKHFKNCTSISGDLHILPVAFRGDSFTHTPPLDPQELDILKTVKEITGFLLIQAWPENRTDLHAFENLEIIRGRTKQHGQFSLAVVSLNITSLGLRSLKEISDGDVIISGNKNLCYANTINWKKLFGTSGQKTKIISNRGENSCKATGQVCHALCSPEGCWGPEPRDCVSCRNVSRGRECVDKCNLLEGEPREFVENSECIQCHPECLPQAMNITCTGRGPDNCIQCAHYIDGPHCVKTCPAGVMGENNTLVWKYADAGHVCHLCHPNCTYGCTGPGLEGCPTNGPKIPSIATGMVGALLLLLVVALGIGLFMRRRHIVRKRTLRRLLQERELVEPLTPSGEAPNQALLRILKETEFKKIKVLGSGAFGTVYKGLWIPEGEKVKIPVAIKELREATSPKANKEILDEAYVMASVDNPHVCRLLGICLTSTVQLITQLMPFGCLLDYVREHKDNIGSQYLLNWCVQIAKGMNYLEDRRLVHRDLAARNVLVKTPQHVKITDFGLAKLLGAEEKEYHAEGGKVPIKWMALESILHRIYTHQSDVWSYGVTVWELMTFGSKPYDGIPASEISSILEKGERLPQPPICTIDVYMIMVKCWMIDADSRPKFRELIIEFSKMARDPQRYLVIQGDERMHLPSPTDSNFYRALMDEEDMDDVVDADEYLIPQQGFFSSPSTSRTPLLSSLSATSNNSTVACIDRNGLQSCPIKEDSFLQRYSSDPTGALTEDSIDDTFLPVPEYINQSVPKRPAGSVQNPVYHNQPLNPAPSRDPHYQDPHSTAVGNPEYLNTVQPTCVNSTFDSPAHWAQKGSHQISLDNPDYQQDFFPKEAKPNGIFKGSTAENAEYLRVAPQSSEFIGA
For data set [3], the system named is H1975 cells (EGFR-L858R/T790M). The data set is described as follows: CellTiter-Glo viability assay, H1975. Particulars: Homo sapiens, NCI-H1975, 96 h. A general note: Cellular ATP, detected with luciferase, serves as a proxy for viable cell number.
Method: as §7, §8, §9
Data set [4] addresses T2, EGFR-L858R (Homo sapiens, UniProt P00533, L858R). The data set is described as follows: Kinetic characterization (Ki, kinact), EGFR-L858R.
For data set [5], the system named is EGFR and downstream cascade phosphorylation in H1975 cells. The data set is described as follows: Western blot analysis in H1975 cells. It counts as cell-based. As to conditions: 1 h inhibitor then EGF stimulation. On the procedure:
and incubated at 37 °C and 5% CO2. On day 2 cells were starved over night with media containing 0.5% FBS to be incubated on day 3 for 1 h with EGFR inhibitors following an additional 30 min of EGF stimulation at 50 ng/mL. The media was discarded and cells were washed once with DPBS
1x. Using 100 μL per well of lysis buffer, cells were then scraped off and lysed while rotating (Stuart Scientific, Staffordshire, UK) for 1 h at 4 °C. […] Supernatant was transferred into new tube and protein concentrations were determined with the Bio-Rad Protein Assay (Bio-Rad Laboratories, Hercules, CA). […]
captured and quantified using a FUJI LAS3000 system with Science Lab 2001 ImageGauge 4.0 software (Fujifilm Medial Systems, Stamford CT, USA). […]
glycerol, 1 mM TCEP, pH 8) on ice for 1 h. We analyzed the aliquots by ESI-MS using an Thermo Fisher Scientific Dionex UltiMate 3000 HPLC system connected to a Thermo Fisher Scientific Velos Pro (2d ion trap). Therefore, 5 μL of sample was injected and separated using a Vydac 214TP C4 5 μm column (150 mm x 2.1 mm) starting at 20% of solvent B for 5 minutes followed by a gradient up to 90% of solvent B over 14 min with a flow rate of 210 μL/min with 0.1% TFA in water as solvent A and 0.1% TFA in MeCN as solvent B. A mass range of 700 to 2000 m/z was scanned and raw data was deconvoluted and analyzed with MagTran software (Z.Q. Zhang, A.G. […]

Data set [6] addresses T3, EGFR-L858R/T790M (Homo sapiens, UniProt P00533, L858R/T790M). The data set is described as follows: HTRF KinEASE-TK activity-based assay, EGFR-L858R/T790M. As to conditions: EGFR HTRF IC50 L858R/T790M, ATP at Km (4 µM), 30 min preincubation; mean ± SD of three independent measurements in duplicates.
Data set [7] deals with T2, EGFR-L858R. The data set is described as follows: HTRF KinEASE-TK activity-based assay, EGFR-L858R.
Data set [8] concerns HCC827 cells (EGFR-delE746_A750). The data set is described as follows: CellTiter-Glo viability assay, HCC827.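 Note: luminescence from ATP content as a measure of metabolically active cells, in RPMI with 10% FBS, compound added as serial dilutions after 24 h of preculture.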 It counts as cell-based. Particulars: Homo sapiens, read-out: EGFR CTG EC50 HCC827.
Method: as §7, §8, §9
Data set [9] has as its target T3, EGFR-L858R/T790M. The data set is described as follows: Kinetic characterization (Ki, kinact), EGFR-L858R/T790M.
Data set [10] is described as follows: Microsomal stability (phase I), mouse. As to conditions: mouse liver microsomes, up to 60 minutes, 37 °C. It counts as in vitro ADME. The protocol: (§1) Microsomal stability (phase I) assay.
(§2) Metabolic stability under oxidative conditions was measured in liver microsomes from different
(§3) time up to 50 minutes (HLM) or 60 minutes (MLM) at 37 °C. Based on the compound half-life t1/2,
(§4) the in vitro intrinsic clearance CLint was calculated. […]
Background: Microsomes from liver hold many membrane-bound enzymes, among them those of drug oxidation.

Data set [11] deals with A431 cells (EGFR wild type). The data set is described as follows: CellTiter-Glo viability assay, A431. As to conditions: Homo sapiens, A-431, 96 h.
Method: as §7, §8, §9
Data set [12] deals with T1, EGFR-wt. The data set is described as follows: Kinetic characterization (Ki, kinact), EGFR-wt.
Data set [13] deals with H358 cells (KRAS mutant). The data set is described as follows: CellTiter-Glo viability assay, H358.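 Note: viable cell number estimated from ATP-dependent luminescence following exposure to serially diluted inhibitor.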 The data set is classed as cell-based. Particulars: Homo sapiens, read-out: KRAS CTG EC50 H358.
Method: as §7, §8, §9
The nature of data set [14]: Caco-2 assay. The data set is classed as in vitro ADME. Particulars: human, Caco-2, 5 μM, pH 7.4, 2 hours. The protocol:
For Caco-2 cell assay, a 10 mM DMSO stock of the compound was diluted to a final concentration of 5 μM in HBSS buffer pH 7.4 and incubated for 2 hours at 37 °C and 5% CO2 on a monolayer of Caco-2 cells (ATCC) that had been grown on a transwell membrane (Millipore, Schwalbach, Germany) for 21 days. The compound concentration was measured in the receiver as well as the donor well. Apparent permeability (Papp) from either the apical to basolateral direction or vice versa […]
is the donor drug concentration at t = 0, and dQ/dt is the amount of drug transported within the given time period of 2 hours. […]

Data set [15] in a line: Plasma protein binding, mouse. The data set is classed as in vitro ADME. As to conditions: equilibrium dialysis, 37 °C. On the procedure:
(§5) Assessment of plasma protein binding was measured by equilibrium dialysis by incubating plasma
(§6) based determination of final compound concentrations. […]

Data set [16] can be described thus: Plasma protein binding, human. It counts as in vitro ADME. As to conditions: equilibrium dialysis, 37 °C. On the procedure:
as §5, §6

Data set [17] can be described thus: Plasma stability, mouse. It counts as in vitro ADME. Particulars: 5 µM, 1 h, 37 °C.
Data set [18] is described as follows: PAMPA (parallel artificial membrane permeability assay). It counts as in vitro ADME. As to conditions: pH 7.4, 500 µM, 16 hours. The protocol:
masses and 0.02 Da for fragment ions. FDR was adjusted to 1% on peptide spectrum match […]
as §1
Metabolic stability under oxidative conditions was measured in liver microsomes from different species by LC/MS-based measuring of depletion of compound at a concentration of 3 µM over time up to 50 minutes (HLM) or 60 minutes (MLM) at 37 °C. Based on the compound half-life t1/2, the in vitro intrinsic clearance CLint was calculated.
Plasma stability was measured by LC/MS-based determination of the percentage of remaining compounds at a concentration of 5 µM after incubation in plasma obtained from different species […]
Assessment of plasma protein binding was measured by equilibrium dialysis by incubating plasma with the compound of interest at a concentration of 5 µM for 6 h at 37 °C followed by LC/MS-based determination of final compound concentrations.
PAMPA (Parallel artificial membrane permeability assay). […]
temperature in a wet chamber, the optical density of the solution in the receiver well was measured between 250 and 500 nm in intervals of 10 nm. The percent flux was calculated from […]

Data set [19] in a line: Plasma stability, human. It counts as in vitro ADME. Particulars: 5 µM, 1 h, 37 °C.
Data set [20] can be described thus: Microsomal stability (phase I), human. Particulars: human liver microsomes, up to 50 minutes, 37 °C. It counts as in vitro ADME. The protocol:
as §1, §2, §3, §4

This note sets out measurements from paper PMC6886544.

SMILES strings stand for the structures. Where two headings read alike, the source gives them in different places.

T3 sequence (P00533 25-1210 T790M/L858R): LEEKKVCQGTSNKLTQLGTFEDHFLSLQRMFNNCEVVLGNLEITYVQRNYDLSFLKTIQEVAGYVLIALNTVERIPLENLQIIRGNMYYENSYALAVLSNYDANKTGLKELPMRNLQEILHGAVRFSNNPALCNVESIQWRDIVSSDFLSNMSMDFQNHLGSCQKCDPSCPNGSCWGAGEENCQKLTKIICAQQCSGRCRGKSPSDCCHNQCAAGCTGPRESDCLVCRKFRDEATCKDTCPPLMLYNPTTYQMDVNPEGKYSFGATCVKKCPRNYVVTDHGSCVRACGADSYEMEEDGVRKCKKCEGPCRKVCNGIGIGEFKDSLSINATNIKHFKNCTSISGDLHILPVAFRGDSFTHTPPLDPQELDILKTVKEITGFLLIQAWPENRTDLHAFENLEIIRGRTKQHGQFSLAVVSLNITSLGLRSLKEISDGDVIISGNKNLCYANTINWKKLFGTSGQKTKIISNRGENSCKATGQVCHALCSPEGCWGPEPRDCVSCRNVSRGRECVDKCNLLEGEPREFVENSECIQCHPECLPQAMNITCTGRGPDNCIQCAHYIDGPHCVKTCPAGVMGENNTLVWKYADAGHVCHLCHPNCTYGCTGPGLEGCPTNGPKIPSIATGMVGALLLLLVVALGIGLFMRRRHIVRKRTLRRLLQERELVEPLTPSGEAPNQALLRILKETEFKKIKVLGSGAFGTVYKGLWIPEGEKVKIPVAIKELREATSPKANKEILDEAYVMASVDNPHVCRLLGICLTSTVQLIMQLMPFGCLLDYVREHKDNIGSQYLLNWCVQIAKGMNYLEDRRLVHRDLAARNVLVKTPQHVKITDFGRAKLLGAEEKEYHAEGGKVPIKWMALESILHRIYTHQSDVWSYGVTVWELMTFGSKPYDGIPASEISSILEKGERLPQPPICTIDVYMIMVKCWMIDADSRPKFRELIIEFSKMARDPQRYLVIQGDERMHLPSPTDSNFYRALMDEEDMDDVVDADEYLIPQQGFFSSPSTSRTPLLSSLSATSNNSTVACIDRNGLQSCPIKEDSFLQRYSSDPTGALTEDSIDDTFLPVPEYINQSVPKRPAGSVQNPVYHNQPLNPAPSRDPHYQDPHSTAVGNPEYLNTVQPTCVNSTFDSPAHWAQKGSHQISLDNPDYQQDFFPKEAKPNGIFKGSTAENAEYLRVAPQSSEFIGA
T2 sequence (P00533 25-1210 L858R): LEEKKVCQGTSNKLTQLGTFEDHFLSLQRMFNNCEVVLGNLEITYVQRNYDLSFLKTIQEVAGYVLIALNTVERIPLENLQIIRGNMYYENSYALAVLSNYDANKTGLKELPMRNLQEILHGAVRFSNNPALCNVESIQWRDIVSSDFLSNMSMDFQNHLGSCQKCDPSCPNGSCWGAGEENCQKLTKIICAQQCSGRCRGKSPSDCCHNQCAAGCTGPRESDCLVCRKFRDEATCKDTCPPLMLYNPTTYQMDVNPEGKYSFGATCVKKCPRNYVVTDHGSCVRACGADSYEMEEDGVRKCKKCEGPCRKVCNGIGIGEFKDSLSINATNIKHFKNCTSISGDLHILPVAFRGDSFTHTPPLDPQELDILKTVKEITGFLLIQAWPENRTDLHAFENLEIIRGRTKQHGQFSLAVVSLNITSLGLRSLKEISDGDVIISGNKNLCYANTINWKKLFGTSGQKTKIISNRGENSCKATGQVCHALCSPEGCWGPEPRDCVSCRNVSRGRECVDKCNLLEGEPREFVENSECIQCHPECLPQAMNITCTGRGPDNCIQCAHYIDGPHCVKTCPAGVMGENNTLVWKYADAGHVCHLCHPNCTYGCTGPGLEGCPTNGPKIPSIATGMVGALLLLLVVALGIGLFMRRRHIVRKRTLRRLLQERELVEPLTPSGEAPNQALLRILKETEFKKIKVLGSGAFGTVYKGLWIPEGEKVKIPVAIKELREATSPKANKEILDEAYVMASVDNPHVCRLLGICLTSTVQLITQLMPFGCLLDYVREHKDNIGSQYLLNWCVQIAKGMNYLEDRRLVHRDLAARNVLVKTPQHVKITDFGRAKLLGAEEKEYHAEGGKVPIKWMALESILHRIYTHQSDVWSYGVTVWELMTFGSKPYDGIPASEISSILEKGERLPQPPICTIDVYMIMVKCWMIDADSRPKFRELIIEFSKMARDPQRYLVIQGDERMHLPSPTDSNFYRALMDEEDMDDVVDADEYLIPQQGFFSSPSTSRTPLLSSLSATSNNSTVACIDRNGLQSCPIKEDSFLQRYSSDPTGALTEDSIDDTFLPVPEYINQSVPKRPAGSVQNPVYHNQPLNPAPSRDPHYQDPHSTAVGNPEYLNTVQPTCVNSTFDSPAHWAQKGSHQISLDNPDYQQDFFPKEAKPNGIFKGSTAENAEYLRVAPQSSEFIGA

On to `C=CC(=O)Nc1cccc(-c2c(-c3ccc(N4CCN(C)CC4)cc3)[nH]c3ncn(C(C)C)c(=O)c23)c1` [Compound 29g], for which the EC50 (in general, the concentration giving half of the maximal effect) in data set [1] was 5720 ± 240 nM; in data set [3] (read-out: EGFR CTG EC50 H1975, H1975, 96 hours, CellTiter-Glo) it was 65 ± 11 nM; in data set [8] (HCC827, 96 hours, CellTiter-Glo), 67 ± 7 nM; in [11] (read-out: EGFR CTG EC50 A431, A431, 96 hours, CellTiter-Glo), 1410 ± 917 nM; in data set [13] (NCI-H358, H358, 96 hours, CellTiter-Glo) it was 9390 ± 3380 nM. The figures for the IC50 in data set [2], in [6] and in data set [7] were 1 ± 0.1 nM, 1 ± 0.3 nM and 0.4 nM, respectively. Moreover, the results for the Ki in data set [4], in data set [9] and in data set [12] were 10 ± 1 nM, 15 ± 3 nM and 10 ± 1 nM, respectively. Besides, the figures for the inactivation rate constant (kinact) in data set [4], in data set [9] and in data set [12] were 0.00317 s⁻¹, 0.00433 s⁻¹ and 0.00167 s⁻¹, respectively. The kinact/KI – broadly, the maximal inactivation rate divided by the concentration that gives half of it – came out at 310000 ± 110000 M⁻¹ s⁻¹ in data set [4], 300000 ± 90000 M⁻¹ s⁻¹ in [9] and 160000 ± 60000 M⁻¹ s⁻¹ in [12]. Further, the “concentration at which phosphorylation of EGFR and downstream proteins was reduced/inhibited” value in [5] was “around 100 nM”. Moreover, the microsomal CLint (usually a measure of how fast metabolising enzymes remove a compound, apart from limits set by blood flow) at 3 µM in data set [10] turned out to be 8 µL/min/mg.
Take `C=CC(=O)Nc1cc(Nc2nccc(-c3cn(C)c4ccccc34)n2)c(OC)cc1N(C)CCN(C)C` [Osimertinib, osimertinib, reference compound]: the concentration for a half-maximal effect (EC50) in [1] was 1830 ± 259 nM; in [3] (read-out: EGFR CTG EC50 H1975), 16 ± 5 nM; in data set [8] (HCC827, 96 h), less than 14 nM; in data set [11] (read-out: EGFR CTG EC50 A431), […]; in [13] (NCI-H358, 96 h), 2840 ± 362 nM. Besides, the Papp A→B at 2 h, 5 μM in [14] (apical to basolateral, read-out: Caco-2: Papp AB) came to 5 ×10⁻⁶ cm/s. Moreover, in data set [14] (basolateral to apical, read-out: Caco-2: Papp BA), the Papp B→A at 2 h, 5 μM was 6.8 ×10⁻⁶ cm/s. The fraction unbound (commonly free concentration divided by total concentration) at 6 h, 5 µM is 0.024 in [15] and 0.029 in data set [16]. Also, the values for the Plasma stability in data set [17] and in data set [19] were 75 %remain and 78 %remain, respectively. Moreover, the PAMPA flux in data set [18] was found to be 88%. Further, the intrinsic metabolic clearance (microsomal CLint) at 3 µM in data set [10] turned out to be 60 µL/min/mg; in [20] it was 4.1 µL/min/mg.
